Results from PMC8882856, “The affinity and selectivity of α‐adrenoceptor antagonists, antidepressants and antipsychotics for the human α2A, α2B, and α2C‐adrenoceptors and comparison with human α1 and β‐adrenoceptors” (Pharmacology Research & Perspectives, 2022).
Where two headings read alike, the source gives them in different places.

Tests used:
human α2A‐adrenoceptor [1] = biological target: T1, human α2A‐adrenoceptor (Homo sapiens, UniProt P08913); assay: ^3H‐rauwolscine whole cell competition binding, CHO‐α2A cells
T1 sequence (P08913 1-465): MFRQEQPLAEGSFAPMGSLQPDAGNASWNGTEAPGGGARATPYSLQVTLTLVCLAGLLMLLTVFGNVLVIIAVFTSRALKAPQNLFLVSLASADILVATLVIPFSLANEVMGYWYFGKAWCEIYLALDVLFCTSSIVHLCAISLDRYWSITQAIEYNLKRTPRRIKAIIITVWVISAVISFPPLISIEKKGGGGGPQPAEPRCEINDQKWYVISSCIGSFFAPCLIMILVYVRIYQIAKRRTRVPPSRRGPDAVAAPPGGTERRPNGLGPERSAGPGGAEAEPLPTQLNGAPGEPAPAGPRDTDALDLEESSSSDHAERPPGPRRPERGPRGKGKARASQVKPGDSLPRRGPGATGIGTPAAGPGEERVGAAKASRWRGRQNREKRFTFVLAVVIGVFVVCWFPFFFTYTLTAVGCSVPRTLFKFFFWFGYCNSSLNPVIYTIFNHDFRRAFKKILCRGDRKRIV

human β1‐adrenoceptor [2] = biological target: T2, human β1‐adrenoceptor (Homo sapiens, UniProt P08588); assay: cell-based
human α2C‐adrenoceptor [3] = biological target: T3, human α2C‐adrenoceptor (Homo sapiens, UniProt P18825); assay: ^3H‐rauwolscine whole cell competition binding, CHO‐α2C cells; conditions: for Selectivity ratio α2A vs α2C (higher affinity for α2C) / Selectivity ratio α2B vs α2C (higher affinity for α2C): ratio of KD values
T3 sequence (P18825 1-462): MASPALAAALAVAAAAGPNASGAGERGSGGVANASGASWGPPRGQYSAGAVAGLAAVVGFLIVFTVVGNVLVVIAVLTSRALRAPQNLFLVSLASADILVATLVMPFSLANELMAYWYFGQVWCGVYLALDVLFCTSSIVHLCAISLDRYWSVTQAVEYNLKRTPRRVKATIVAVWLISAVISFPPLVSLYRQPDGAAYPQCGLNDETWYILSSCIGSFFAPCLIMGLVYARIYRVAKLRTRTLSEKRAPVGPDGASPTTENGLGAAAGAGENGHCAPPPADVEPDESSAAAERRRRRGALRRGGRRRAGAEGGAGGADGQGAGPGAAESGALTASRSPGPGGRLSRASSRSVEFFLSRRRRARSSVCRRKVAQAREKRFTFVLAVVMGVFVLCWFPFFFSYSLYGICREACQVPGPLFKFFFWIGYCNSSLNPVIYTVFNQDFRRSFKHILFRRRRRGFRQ

human α2B‐adrenoceptor [4] = biological target: T4, human α2B‐adrenoceptor (Homo sapiens, UniProt P18089); assay: ^3H‐rauwolscine whole cell competition binding, CHO‐α2B cells
T4 sequence (P18089 1-450): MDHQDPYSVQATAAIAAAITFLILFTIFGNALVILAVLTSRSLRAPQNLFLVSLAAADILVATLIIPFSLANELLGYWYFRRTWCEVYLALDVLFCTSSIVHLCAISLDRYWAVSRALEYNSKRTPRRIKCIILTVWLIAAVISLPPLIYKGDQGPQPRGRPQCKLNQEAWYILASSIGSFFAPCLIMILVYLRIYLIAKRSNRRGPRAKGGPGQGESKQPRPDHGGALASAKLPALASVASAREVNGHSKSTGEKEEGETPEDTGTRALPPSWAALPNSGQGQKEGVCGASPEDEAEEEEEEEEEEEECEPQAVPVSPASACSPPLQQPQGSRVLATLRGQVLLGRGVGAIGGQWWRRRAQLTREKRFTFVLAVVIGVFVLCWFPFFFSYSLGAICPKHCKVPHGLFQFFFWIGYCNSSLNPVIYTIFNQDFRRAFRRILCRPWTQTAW

human β2‐adrenoceptor = human β2‐adrenoceptor (Homo sapiens, UniProt P07550); type: binding; conditions: for IC50: ^3H‐CGP12177, log value, read-out: IC50 (log) β2, IC50>top concentration used (converted); for Kd / Log KD β2: mean ± s.e.mean; for Kd: read-out: Log KD β2 (converted)
human α2A‐adrenoceptor [5] = biological target: T1, human α2A‐adrenoceptor; assay: cell-based
human α2C‐adrenoceptor [6] = biological target: T3, human α2C‐adrenoceptor; assay: cell-based
human β1‐adrenoceptor [7] = biological target: T2, human β1‐adrenoceptor; conditions: mean ± s.e.mean
human α2B‐adrenoceptor [8] = biological target: T4, human α2B‐adrenoceptor; assay: cell-based
human α2C‐adrenoceptor [9] = biological target: T3, human α2C‐adrenoceptor
human α2A‐adrenoceptor [10] = biological target: T1, human α2A‐adrenoceptor
[11] = ^3H‐CGP12177 whole cell binding, log values, ^app = apparent KD, 'no binding to' = log top concentration
[12] = given as log KD (negative values), 3H-CGP12177 whole cell binding, CHO cells

T2 sequence (P08588 whole entry): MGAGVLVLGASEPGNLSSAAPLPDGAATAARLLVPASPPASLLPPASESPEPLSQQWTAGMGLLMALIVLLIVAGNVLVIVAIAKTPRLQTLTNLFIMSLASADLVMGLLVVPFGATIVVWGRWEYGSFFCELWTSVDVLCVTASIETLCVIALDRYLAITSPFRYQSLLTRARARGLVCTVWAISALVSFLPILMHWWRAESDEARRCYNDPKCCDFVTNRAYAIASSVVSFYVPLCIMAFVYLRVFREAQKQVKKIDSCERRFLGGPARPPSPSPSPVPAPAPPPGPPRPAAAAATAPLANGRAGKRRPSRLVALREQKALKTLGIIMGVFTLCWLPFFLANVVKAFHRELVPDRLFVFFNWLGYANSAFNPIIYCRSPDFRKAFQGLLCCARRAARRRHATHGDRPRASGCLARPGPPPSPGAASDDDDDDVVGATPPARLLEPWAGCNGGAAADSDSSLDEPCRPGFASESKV
human β2‐adrenoceptor, sequence (P07550 whole entry): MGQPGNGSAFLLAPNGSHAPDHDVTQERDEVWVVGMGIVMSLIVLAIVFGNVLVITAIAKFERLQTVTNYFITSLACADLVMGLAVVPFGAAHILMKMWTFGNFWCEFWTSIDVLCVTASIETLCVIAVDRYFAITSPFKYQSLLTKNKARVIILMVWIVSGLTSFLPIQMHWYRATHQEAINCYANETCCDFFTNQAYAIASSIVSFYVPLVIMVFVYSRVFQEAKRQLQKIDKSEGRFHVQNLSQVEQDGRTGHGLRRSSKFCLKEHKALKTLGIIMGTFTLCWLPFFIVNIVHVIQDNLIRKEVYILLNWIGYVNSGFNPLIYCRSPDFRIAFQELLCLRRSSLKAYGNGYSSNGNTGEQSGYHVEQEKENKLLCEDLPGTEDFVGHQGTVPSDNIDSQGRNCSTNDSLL

How did the Kd (human α2A‐adrenoceptor [1]) turn out when `CNCC[C@H](Oc1cccc2ccccc12)c1cccs1` [duloxetine] was run?
The Kd was 3.72 µM.

And the IC50 (human β1‐adrenoceptor [2])?
Its IC50 is over 31.6 µM.

And the Kd (human α2C‐adrenoceptor [3])?
Its Kd is 2.14 µM.

What about the Kd (human α2B‐adrenoceptor [4]) of the same molecule?
The Kd was 4.9 µM.

Which results are given for `c1ccc2c(c1)OCC(C1=NCCN1)O2` (stereo not drawn) [idazoxan]?
IC50 (human β2‐adrenoceptor): > 1000 µM; IC50 (human β1‐adrenoceptor [2]): > 1000 µM

Which results are given for `CC(C(O)c1ccc(O)cc1)N1CCC(Cc2ccccc2)CC1` (stereo not drawn) [ifenprodil]?
Kd (human α2A‐adrenoceptor [5]): 0.977 µM; IC50 (human β2‐adrenoceptor): > 10 µM; Kd (human α2C‐adrenoceptor [6]): 0.158 µM; IC50 (human β1‐adrenoceptor [2]): > 10 µM; Selectivity ratio α2A vs α2C (higher affinity for α2C) (human α2C‐adrenoceptor [3]): 6.2; Selectivity ratio α2B vs α2C (higher affinity for α2C) (human α2C‐adrenoceptor [3]): 4.6; Kd (human α2B‐adrenoceptor [4]): 0.724 µM; Selectivity ratio α2A vs α2B (higher affinity for α2B) (human α2B‐adrenoceptor [4]; ratio of KD values): 1.3

How did the Kd (human α2A‐adrenoceptor [5]) turn out when `CN(C)CCCN1c2ccccc2CCc2ccccc21` [imipramine] was run?
Its Kd is 5.62 µM.

And the IC50 (human β2‐adrenoceptor)?
Its IC50 is over 100 µM.

What about the Kd (human α2C‐adrenoceptor [6]) of the same molecule?
The Kd was 1.29 µM.

What about the IC50 (human β1‐adrenoceptor [2]) of the same molecule?
Its IC50 is over 100 µM.

What about the “Selectivity ratio α2A vs α2C (higher affinity for α2C)” value (human α2C‐adrenoceptor [3]) of the same molecule?
The value was 4.4.

And the Kd (human α2B‐adrenoceptor [4])?
Its Kd is 0.437 µM.

And the “Selectivity ratio α2A vs α2B (higher affinity for α2B)” value (human α2B‐adrenoceptor [4]; ratio of KD values)?
The value was 12.9.

And the “Selectivity ratio α2B vs α2C (higher affinity for α2B)” value (human α2B‐adrenoceptor [4]; ratio of KD values)?
The value was 3.0.

Which IC50 (human β2‐adrenoceptor) does the source give for `O=C1[C@@H]2[C@H]3CC[C@H](C3)[C@@H]2C(=O)N1C[C@@H]1CCCC[C@H]1CN1CCN(c2nsc3ccccc23)CC1` [lurasidone] here?
The IC50 was over 10 µM.

What about the Kd (human α2C‐adrenoceptor [6]) of the same molecule?
The Kd was 0.0457 µM.

What about the Kd (human α2B‐adrenoceptor [4]) of the same molecule?
Its Kd is 0.0437 µM.

How did the IC50 (human β2‐adrenoceptor) turn out when `Fc1ccc([C@@H]2CCNC[C@H]2COc2ccc3c(c2)OCO3)cc1` [paroxetine] was run?
Its IC50 is over 31.6 µM.

What about the IC50 (human β1‐adrenoceptor [2]) of the same molecule?
Its IC50 is over 31.6 µM.

And the IC50 (human α2C‐adrenoceptor [3])?
Its IC50 is over 10 µM.

Which results are given for `CC(CN1c2ccccc2Sc2ccccc21)N(C)C` (stereo not drawn) [promethazine]?
IC50 (human β2‐adrenoceptor): > 100 µM; Kd (human α2C‐adrenoceptor [6]): 2.88 µM; IC50 (human β1‐adrenoceptor [2]): > 100 µM

What does the source list for `O=C1NCN(c2ccccc2)C12CCN(CC1COc3ccccc3O1)CC2` (stereo not drawn) [spiroxatrine]?
Kd (human α2A‐adrenoceptor [5]): 0.107 µM; IC50 (human β2‐adrenoceptor): > 31.6 µM; Kd (human α2C‐adrenoceptor [6]): 0.00182 µM; IC50 (human β1‐adrenoceptor [2]): > 31.6 µM

How did the Kd (human α2A‐adrenoceptor [5]) turn out when `CCN1CCCC1CNC(=O)c1cc(S(N)(=O)=O)ccc1OC` (stereo not drawn) [sulpiride] was run?
Its Kd is 31.6 µM.

What about the IC50 (human β2‐adrenoceptor) of the same molecule?
Its IC50 is over 1000 µM.

What about the IC50 (human β1‐adrenoceptor [2]) of the same molecule?
The IC50 was over 1000 µM.

Which results are given for `CCOc1ccccc1OCCN[C@H](C)Cc1ccc(OC)c(S(N)(=O)=O)c1` [tamsulosin]?
Kd (human α2A‐adrenoceptor [5]): 0.468 µM; Kd (human β2‐adrenoceptor; [11]): 0.832 µM; Selectivity ratio α2A vs α2B (higher affinity for α2A) (human α2A‐adrenoceptor [1]; ratio of KD values): 10.5; Kd (human β1‐adrenoceptor [2]): 0.55 µM; Kd (human α2C‐adrenoceptor [3]): 0.389 µM; Selectivity ratio α2A vs α2C (higher affinity for α2C) (human α2C‐adrenoceptor [3]): 1.2; Selectivity ratio α2B vs α2C (higher affinity for α2C) (human α2C‐adrenoceptor [3]): 12.6; Kd (human α2B‐adrenoceptor [4]): 4.9 µM

With `COc1cc2nc(N3CCN(C(=O)C4CCCO4)CC3)nc(N)c2cc1OC` (stereo not drawn) [terazosin] as the molecule, how does the “Log KD β1” value (human β1‐adrenoceptor [7]; [11]) read?
Its value is “No binding to −4”.

What about the “Log KD β1” value (human β1‐adrenoceptor [7]; [12]) of the same molecule?
The value was “No binding to -4”.

What about the Kd (human α2A‐adrenoceptor [5]) of the same molecule?
Its Kd is 6.61 µM.

What about the “Log KD β2” value (human β2‐adrenoceptor; [11]) of the same molecule?
Its value is “No binding to −4”.

And the “Log KD β2” value (human β2‐adrenoceptor; [12])?
Its value is “No binding to -4”.

For `CC(CN(C)C)CN1c2ccccc2CCc2ccccc21` (stereo not drawn) [trimipramine], which Kd (human α2B‐adrenoceptor [8]) is on record?
The Kd was 0.603 µM.

What about the Kd (human α2A‐adrenoceptor [5]) of the same molecule?
The Kd was 2.14 µM.

What about the Kd (human α2C‐adrenoceptor [6]) of the same molecule?
The Kd was 0.427 µM.

How did the Kd (human α2A‐adrenoceptor [5]) turn out when `COc1ccccc1N1CCN(CCCNc2cc(=O)n(C)c(=O)n2C)CC1` [urapidil] was run?
Its Kd is 3.24 µM.

What about the Kd (human β2‐adrenoceptor; [11]) of the same molecule?
The Kd was 10 µM.

`COc1ccc(C(CN(C)C)C2(O)CCCCC2)cc1` (stereo not drawn) [venlafaxime] was tested. Which “Log KD β1” value (human β1‐adrenoceptor [7]; [11]) did it give?
The value was −3.80 ± 0.11^app.

What about the “Log KD β2” value (human β2‐adrenoceptor; [11]) of the same molecule?
The value was −4.13 ± 0.13^app.

What about the Kd (human α2C‐adrenoceptor [9]) of the same molecule?
The Kd was 182 µM.

And the Kd (human α2A‐adrenoceptor [10])?
The Kd was 346.7 ± 3.01 µM.
